Patent publication US6670363B1, “Azole compounds as therapeutic agents for fungal infections” (Ranbaxy Laboratories Limited, priority 2000, dated 2003)
≈ marks a conversion by molar mass, not a printed value.

How the values were obtained:
A. fumigatus s 1008 = assay: In vitro MIC, NCCLS M38P broth method (RPMI 1640/MOPS pH7), Aspergillus fumigatus; assay type: cell-based; settings: A. fumigatus strain 1008
Candida = assay: In vitro MIC, NCCLS M27A, Candida species; assay type: cell-based; set-up: MIC, Candida albicans 1.549 / MIC, Candida albicans Y-01-19 / MIC, C. krusei 766-1 / MIC, C. krusei Q. C / MIC, Candida tropicalis ATCC / MIC, C. glabrata 90030: unit not given beside the values; MIC, Candida albicans A 26 / MIC, C. parapsilosis Q. C.: unit not given here; settings: for MIC, C. glabrata 90030: C. glabrata strain 90030; for MIC, C. krusei 766-1: C. krusei strain 766-1; for MIC, C. krusei Q. C: C. krusei strain Q. C; for MIC, C. parapsilosis Q. C.: C. parapsilosis strain Q. C.; for MIC, Candida albicans 1.549: Candida albicans strain 1.549; for MIC, Candida albicans A 26: Candida albicans strain A 26; for MIC, Candida albicans Y-01-19: Candida albicans strain Y-01-19
Cryptococcus neoformans = assay: In vitro MIC, NCCLS M27A, Cryptococcus neoformans; assay type: cell-based; set-up: MIC, C. neoformans I: unit not given beside the values; MIC, C. neoformans M 106: unit not given here; settings: for MIC, C. neoformans I: C. neoformans strain I; for MIC, C. neoformans M 106: C. neoformans strain M 106
Histoplasma capsulatum = assay type: cell-based

O=c1n(-c2ccc(N3CCN(c4ccc([N+](=O)[O-])cc4[N+](=O)[O-])CC3)cc2)cnn1CC(O)(Cn1cncn1)c1ccc(F)cc1F (centres unmarked) [Compound 40, 2-[2-(2,4-Difluorophenyl)-2-hydroxy-3-(1H-1,2,4-triazol-1-yl)propyl]-4-{4-[4-(2,4-dinitrophenyl)-1-piperazinyl]phenyl}-3-(2H,4H)-1,2,4-triazolone]
MIC, A. fumigatus 1008 (A. fumigatus s 1008): 1.56 | MIC, C. glabrata 90030 (Candida): 0.80 | MIC, C. krusei 766-1 (Candida): 6.25 | MIC, C. krusei Q. C (Candida): 1.56 | MIC, C. parapsilosis Q. C. (Candida): 0.05 | MIC, Candida albicans 1.549 (Candida): 0.40 | MIC, Candida albicans A 26 (Candida): <0.02 | MIC, Candida albicans Y-01-19 (Candida): 0.40 | MIC, Candida tropicalis ATCC (Candida): 1.56 | melting point: 120 to 123 °C | MIC, C. neoformans I (Cryptococcus neoformans): 0.05 | MIC, C. neoformans M 106 (Cryptococcus neoformans): 0.20 | MIC, H. capsulatum (Histoplasma capsulatum): 0.05 mg/L (≈ 0.0771 µM)

COc1ccc(N2CCN(c3ccc(-n4cnn(CC(O)(Cn5cncn5)c5ccc(F)cc5F)c4=O)cc3)CC2)cc1 (centres unmarked) [Compound 41, 2-[2-(2,4-Difluorophenyl)-2-hydroxy-3-(1H-1,2,4-triazol-1-yl)propyl]-4-{4-[4-(4-methoxyphenyl)-1-piperazinyl]phenyl}-3-(2H,4H)-1,2,4-triazolone]
MIC, A. fumigatus 1008 (A. fumigatus s 1008): 6.25 | MIC, C. glabrata 90030 (Candida): 0.80 | MIC, C. krusei 766-1 (Candida): 1.56 | MIC, C. krusei Q. C (Candida): 0.40 | MIC, C. parapsilosis Q. C. (Candida): <0.02 | MIC, Candida albicans 1.549 (Candida): 0.05 | MIC, Candida albicans A 26 (Candida): <0.02 | MIC, Candida albicans Y-01-19 (Candida): 0.10 | MIC, Candida tropicalis ATCC (Candida): 3.12 | melting point: 183 to 186 °C | MIC, C. neoformans I (Cryptococcus neoformans): 0.10 | MIC, C. neoformans M 106 (Cryptococcus neoformans): 0.40 | MIC, H. capsulatum (Histoplasma capsulatum): < 0.02 mg/L

COc1ccccc1N1CCN(c2ccc(-n3cnn(CC(O)(Cn4cncn4)c4ccc(F)cc4F)c3=O)cc2)CC1 (centres unmarked) [Compound 42, 2-[2-(2,4-Difluorophenyl)-2-hydroxy-3-(1H-1,2,4-triazol-1-yl)propyl]-4-{4-[4-(2-methoxyphenyl)-1-piperazinyl]phenyl}-3-(2H,4H)-1,2,4-triazolone]
MIC, A. fumigatus 1008 (A. fumigatus s 1008): >12.5 | MIC, C. glabrata 90030 (Candida): 1.56 | MIC, C. krusei 766-1 (Candida): 3.12 | MIC, C. krusei Q. C (Candida): 1.56 | MIC, C. parapsilosis Q. C. (Candida): <0.02 | MIC, Candida albicans 1.549 (Candida): 0.40 | MIC, Candida albicans A 26 (Candida): 0.05 | MIC, Candida albicans Y-01-19 (Candida): 12.50 | MIC, Candida tropicalis ATCC (Candida): 12.50 | melting point: 95 to 97 °C | MIC, C. neoformans I (Cryptococcus neoformans): 0.20 | MIC, C. neoformans M 106 (Cryptococcus neoformans): 0.80 | MIC, H. capsulatum (Histoplasma capsulatum): 0.05 mg/L (≈ 0.0849 µM)

O=c1n(-c2ccc(N3CCN(c4ccc(F)cc4)CC3)cc2)cnn1CC(O)(Cn1cncn1)c1ccc(F)cc1F (centres unmarked) [Compound 43, 2-[2-(2,4-Difluorophenyl)-2-hydroxy-3-(1H-1,2,4-triazol-1-yl)propyl]-4-{4-[4-(4-fluorophenyl)-1-piperazinyl]phenyl}-3-(2H,4H)-1,2,4-triazolone]
MIC, A. fumigatus 1008 (A. fumigatus s 1008): >12.5 | MIC, C. glabrata 90030 (Candida): 0.40 | MIC, C. krusei 766-1 (Candida): 1.56 | MIC, C. krusei Q. C (Candida): 0.20 | MIC, C. parapsilosis Q. C. (Candida): <0.02 | MIC, Candida albicans 1.549 (Candida): <0.02 | MIC, Candida albicans A 26 (Candida): <0.02 | MIC, Candida albicans Y-01-19 (Candida): 0.05 | MIC, Candida tropicalis ATCC (Candida): 12.50 | melting point: 173 to 177 °C | MIC, C. neoformans I (Cryptococcus neoformans): 0.05 | MIC, C. neoformans M 106 (Cryptococcus neoformans): 0.05 | MIC, H. capsulatum (Histoplasma capsulatum): < 0.02 mg/L

O=c1n(-c2ccc(N3CCN(c4ccc(O)cc4)CC3)cc2)cnn1CC(O)(Cn1cncn1)c1ccc(F)cc1F (centres unmarked) [Compound 44, 2-[2-(2,4-Difluorophenyl)-2-hydroxy-3-(1H-1,2,4-triazol-1-yl)propyl]-4-{4-[4-(4-hydroxyphenyl)-1-piperazinyl]phenyl}-3-(2H,4H)-1,2,4-triazolone]
MIC, A. fumigatus 1008 (A. fumigatus s 1008): >12.5 | MIC, C. glabrata 90030 (Candida): 6.25 | MIC, C. krusei 766-1 (Candida): >12.5 | MIC, C. krusei Q. C (Candida): 6.25 | MIC, C. parapsilosis Q. C. (Candida): 0.20 | MIC, Candida albicans 1.549 (Candida): >12.5 | MIC, Candida albicans A 26 (Candida): >12.5 | MIC, Candida albicans Y-01-19 (Candida): 1.56 | MIC, Candida tropicalis ATCC (Candida): 6.25 | melting point: 246 to 248 °C | MIC, C. neoformans I (Cryptococcus neoformans): 1.56 | MIC, C. neoformans M 106 (Cryptococcus neoformans): 3.12 | MIC, H. capsulatum (Histoplasma capsulatum): 1.56 mg/L (≈ 2.71 µM)
